Data: PubChem BioAssay AID248 (DTP/NCI, 2004)
Inconclusive results and toxic doses are left out. Cut-off read from the data, not from the text of the source: active = T/C of 150% or more; inactive = T/C below 125%.

Test system: L1210 leukemia ip in BDF1 mice, survival T/C
Assay: NCI In Vivo Anticancer Drug Screen. Data for tumor model L1210 Leukemia (intraperitoneal) in B6D2F1 (BDF1) mice
Conditions: endpoint: mean survival time, higher = longer survival
In short: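 In this screen, tumor-bearing mice given compound are compared to those given vehicle, and their survival values are reported as a treated-to-control quotient.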

[1] = dose: 50.0 mg/kg/injection, schedule: Q04DX003 (ip), vehicle: Klucel (hydroxypropylcellulose) (HPC)
[2] = dose: 100.0 mg/kg/injection, schedule: Q04DX003 (ip), vehicle: Klucel (hydroxypropylcellulose) (HPC)
[3] = dose: 200.0 mg/kg/injection, schedule: Q04DX003 (ip), vehicle: Klucel (hydroxypropylcellulose) (HPC)
[4] = dose: 400.0 mg/kg/injection, schedule: Q04DX003 (ip), vehicle: Klucel (hydroxypropylcellulose) (HPC)
[5] = dose: 100.0 mg/kg/injection, schedule: Q01DX001 (ip), vehicle: saline
[6] = dose: 200.0 mg/kg/injection, schedule: Q01DX001 (ip), vehicle: saline
[7] = dose: 400.0 mg/kg/injection, schedule: Q01DX001 (ip), vehicle: saline
[8] = dose: 100.0 mg/kg/injection, schedule: Q04DX003 (ip), vehicle: saline
[9] = dose: 200.0 mg/kg/injection, schedule: Q04DX003 (ip), vehicle: saline
[10] = dose: 400.0 mg/kg/injection, schedule: Q04DX003 (ip), vehicle: saline
[11] = dose: 50.0 mg/kg/injection, schedule: Q01DX001 (ip), vehicle: saline
[12] = dose: 100.0 mg/kg/injection, schedule: Q01DX009 (ip), vehicle: Klucel (hydroxypropylcellulose) (HPC)
[13] = dose: 200.0 mg/kg/injection, schedule: Q01DX009 (ip), vehicle: Klucel (hydroxypropylcellulose) (HPC)
[14] = dose: 400.0 mg/kg/injection, schedule: Q01DX009 (ip), vehicle: Klucel (hydroxypropylcellulose) (HPC)

Measured: T/C

CCOC(=O)C1(C(=O)OCC)C(C)CC(OCC)N1C(=O)c1cc2c(cc1[N+](=O)[O-])OCO2 (stereo not drawn)
inactive: dose: 25.0 mg/kg/injection, schedule: Q04DX003 (ip), vehicle: Klucel (hydroxypropylcellulose) (HPC) 92 % of control | [1] 89 % of control | [2] 94 % of control

COc1ccc(C(=O)C(C)C(O)(C(F)(F)F)C(F)(F)F)cc1 (stereo not drawn)
inactive: dose: 75.0 mg/kg/injection, schedule: Q01DX009 (ip), vehicle: Klucel (hydroxypropylcellulose) (HPC) 97 % of control | [2] 111 % of control | dose: 150.0 mg/kg/injection, schedule: Q01DX009 (ip), vehicle: Klucel (hydroxypropylcellulose) (HPC) 101 % of control | [3] 100 % of control | dose: 300.0 mg/kg/injection, schedule: Q01DX009 (ip), vehicle: Klucel (hydroxypropylcellulose) (HPC) 92 % of control | [4] 100 % of control

CC(=O)OC1C(C(N)=O)CC(C(=O)O)C1OC(C)=O (stereo not drawn)
inactive: [5] 112 % of control | [6] 114 % of control | [7] 106 % of control

CC(=O)N[Si](C)(C)C
inactive: [5] 102 % of control | [6] 100 % of control | [7] 98 % of control

CN(NCc1ccccc1)C(=N)N
inactive: dose: 25.0 mg/kg/injection, schedule: Q04DX003 (ip), vehicle: saline 106 % of control | dose: 50.0 mg/kg/injection, schedule: Q04DX003 (ip), vehicle: saline 109 % of control | [5] 107 % of control | [8] 109 % of control

CC(C)=NNC(=O)c1ccc(N)cc1
inactive: dose: 100.0 mg/kg/injection, schedule: Q01DX009 (ip), vehicle: saline with Tween-80 91 % of control | dose: 200.0 mg/kg/injection, schedule: Q01DX009 (ip), vehicle: saline with Tween-80 101 % of control

CC(C)CC(C)(O)C(N)=O (stereo not drawn)
inactive: [8] 102 % of control | [9] 102 % of control | [10] 91 % of control

CS(=O)(=O)OCCN(CCO)c1cn(C(c2ccccc2)(c2ccccc2)c2ccccc2)c(=O)n(C(c2ccccc2)(c2ccccc2)c2ccccc2)c1=O
inactive: [11] 94 % of control | [5] 105 % of control | [6] 97 % of control | [7] 103 % of control

CCS(=O)c1ncc2cnccn12 (stereo not drawn)
inactive: dose: 50.0 mg/kg/injection, schedule: Q01DX009 (ip), vehicle: water 105 % of control | dose: 100.0 mg/kg/injection, schedule: Q01DX009 (ip), vehicle: water 107 % of control | dose: 100.0 mg/kg/injection, schedule: Q04DX003 (ip), vehicle: water 102 % of control | dose: 200.0 mg/kg/injection, schedule: Q04DX003 (ip), vehicle: water 100 % of control

CCCCCCCCNC(=O)CCCCC(=O)NCCCCCCCC
inactive: [12] 91 % of control | [2] 90 % of control | [13] 86 % of control | [3] 90 % of control | [14] 95 % of control | [4] 101 % of control

COC(=O)NC1CCCC1I (stereo not drawn)
inactive: dose: 75.0 mg/kg/injection, schedule: Q01DX001 (ip), vehicle: saline 102 % of control | dose: 150.0 mg/kg/injection, schedule: Q01DX001 (ip), vehicle: saline 109 % of control | dose: 300.0 mg/kg/injection, schedule: Q01DX001 (ip), vehicle: saline 98 % of control

CCN(CC)C(=S)SC(=S)N(CC)CC
inactive: dose: 100.0 mg/kg/injection, schedule: Q04DX002 (ip), vehicle: gum acacia 103 % of control | dose: 200.0 mg/kg/injection, schedule: Q04DX002 (ip), vehicle: gum acacia 103 % of control | dose: 400.0 mg/kg/injection, schedule: Q04DX002 (ip), vehicle: gum acacia 89 % of control

CC(C)(O)C(Cl)S(=O)c1ccccc1 (stereo not drawn)
inactive: dose: 75.0 mg/kg/injection, schedule: Q03DX002 (ip), vehicle: saline with Tween-80 113 % of control | dose: 300.0 mg/kg/injection, schedule: Q03DX002 (ip), vehicle: saline with Tween-80 117 % of control

CCCC(F)C(Br)C(=O)O (stereo not drawn)
inactive: dose: 100.0 mg/kg/injection, schedule: Q04DX002 (ip), vehicle: other 90 % of control | dose: 200.0 mg/kg/injection, schedule: Q04DX002 (ip), vehicle: other 90 % of control | dose: 400.0 mg/kg/injection, schedule: Q04DX002 (ip), vehicle: other 90 % of control

O=C1NC(=O)C2(CCCCCCC2)N1
inactive: dose: 50.0 mg/kg/injection, schedule: Q01DX009 (ip), vehicle: Klucel (hydroxypropylcellulose) (HPC) 104 % of control | [1] 111 % of control | [12] 96 % of control | [2] 99 % of control | [13] 96 % of control | [3] 103 % of control

CC(=O)OCC1OC(n2cnc3c(=S)nc(N)[nH]c32)CC1OC(C)=O (stereo not drawn)
inactive: dose: 2.5 mg/kg/injection, schedule: Q01DX002 (ip), vehicle: Klucel (hydroxypropylcellulose) (HPC) 118 % of control | dose: 5.0 mg/kg/injection, schedule: Q04DX003 (ip), vehicle: Klucel (hydroxypropylcellulose) (HPC) 117 % of control | dose: 10.0 mg/kg/injection, schedule: Q01DX002 (ip), vehicle: Klucel (hydroxypropylcellulose) (HPC) 119 % of control | dose: 10.0 mg/kg/injection, schedule: Q04DX003 (ip), vehicle: Klucel (hydroxypropylcellulose) (HPC) 121 % of control | dose: 20.0 mg/kg/injection, schedule: Q01DX002 (ip), vehicle: Klucel (hydroxypropylcellulose) (HPC) 123 % of control

O=C1CCc2cc([N+](=O)[O-])ccc2O1
inactive: [11] 103 % of control | [5] 92 % of control | [6] 94 % of control | [7] 103 % of control

Cc1ccc(Nc2ccc(C)cc2[N+](=O)[O-])cc1
inactive: dose: 100.0 mg/kg/injection, schedule: Q01DX001 (ip), vehicle: carboxymethylcellulose (CMC) 105 % of control | dose: 200.0 mg/kg/injection, schedule: Q01DX001 (ip), vehicle: carboxymethylcellulose (CMC) 102 % of control | dose: 400.0 mg/kg/injection, schedule: Q01DX001 (ip), vehicle: carboxymethylcellulose (CMC) 94 % of control

CC(C)(C)c1ccc(S(=O)(=O)Cl)cc1
inactive: dose: 100.0 mg/kg/injection, schedule: Q04DX002 (ip), vehicle: Klucel (hydroxypropylcellulose) (HPC) 97 % of control | dose: 200.0 mg/kg/injection, schedule: Q04DX002 (ip), vehicle: Klucel (hydroxypropylcellulose) (HPC) 104 % of control | dose: 400.0 mg/kg/injection, schedule: Q04DX002 (ip), vehicle: Klucel (hydroxypropylcellulose) (HPC) 90 % of control

O=C(Nc1cc([N+](=O)[O-])ccc1F)Oc1ccccc1F
inactive: [2] 102 % of control | [3] 94 % of control | [4] 98 % of control

c1ccc(CSSCc2ccccc2)cc1
inactive: [12] 100 % of control | [8] 92 % of control | [13] 96 % of control | [9] 88 % of control | [14] 102 % of control | [10] 92 % of control

COc1cccc(N=Cc2ccc(OC(=O)c3ccccc3)c(OC)c2)c1
inactive: [12] 91 % of control | [13] 94 % of control | [14] 92 % of control

c1ccc(Nc2nnc(Nc3ccccn3)c3ccccc23)nc1
inactive: dose: 100.0 mg/kg/injection, schedule: Q04DX003 (ip), vehicle: saline with Tween-80 95 % of control | dose: 200.0 mg/kg/injection, schedule: Q04DX003 (ip), vehicle: saline with Tween-80 93 % of control | dose: 400.0 mg/kg/injection, schedule: Q04DX003 (ip), vehicle: saline with Tween-80 96 % of control

CCCC(=O)NNC(=O)CCC
inactive: dose: 100.0 mg/kg/injection, schedule: Q04DX003 (ip), vehicle: gum acacia 106 % of control | dose: 200.0 mg/kg/injection, schedule: Q04DX003 (ip), vehicle: gum acacia 107 % of control | dose: 400.0 mg/kg/injection, schedule: Q04DX003 (ip), vehicle: gum acacia 120 % of control
